Type in all cases: in vivo
The subject of assay [1] is obese, diabetic female (ob/ob) mice. The experiment in a line: GBR 12909 once daily for 14 days in obese, diabetic ob/ob mice. The note with it: 30 mg/kg once daily. The procedure:
GBR 12909 (1-(2-[bis(4-Fluorophenyl)methoxy]ethyl)-4-(3-phenylpropyl)piperazine dihydrochloride) is a specific dopamine reuptake inhibitor. Systemic administration of GBR 12909 can increase the dopaminergic to noradrenergic neuronal activity in the central nervous system. A study was conducted to determine the effects of GBR 12909 upon blood glucose and plasma free fatty acid levels in obese, diabetic mice (ob/ob strain). The ob/ob mouse is hyperphagic, obese, insulin resistant, diabetic and dyslipidemic due to the absence of functional leptin as a result of a mutation in this gene. Starvation or calorie restriction of these mice leads to increases in plasma free fatty acid levels that can function over the long term to worsen diabetes.
Different groups of obese, diabetic female (ob/ob) mice (body weight of approximately 33 g) maintained on 12 hour daily photoperiods, housed one per cage and allowed to feed ad libitum were randomized to once daily treatment with either a specific dopamine reuptake inhibitor, GBR 12909 at a dose of 30 mg/kg body weight (n=5-7) or vehicle (control group; n=5-7) for a 14 day period. On the fifteenth day of the study and approximately 24 hours after the final treatment animals were sacrificed and blood samples were obtained for the analyses of blood glucose and plasma free fatty acid and triglyceride levels.

The test system of assay [2] is obese, diabetic female ob/ob mice with mild diabetes. The experiment in a line: GBR 12909 and clonidine, interactive effects on blood glucose in ob/ob mice. As to conditions: GBR 12909 about 20 mg/kg, clonidine about 0.1 mg/kg, alone or together, once daily 14 days, controls 202±41. As to the method: GBR 12909 is a specific dopamine reuptake inhibitor. Its use can increase the dopaminergic to noradrenergic neuronal activity in the central nervous system. However, by combining GBR 12909 with clonidine, a noradrenergic alpha 2 receptor agonist with preferential affinity for presynaptic alpha 2 sites, it is possible to further increase the dopamine to noradrenaline neuronal activity ratio in the central nervous system. A study was conducted to determine the interactive effects of GBR 12909 and clonidine on blood glucose level in ob/ob mice.
Obese, diabetic female ob/ob mice (body weight of approximately 28 g) with mild diabetes were maintained on 14 hour daily photoperiods, housed one per cage and allowed to feed ad libitum. Different groups of these animals were randomized to once daily treatment with either a specific dopamine reuptake inhibitor, GBR 12909 at an approximate dose of 20 mg/kg body weight (n=4), or clonidine at an approximate dose of 0.1 mg/kg (n=5), these same dosages of GBR 12909 plus clonidine (n=3), or vehicle (control group; n=5-7) for a 14 day period. On the fifteenth day of the study and approximately 24 hours after the final treatment animals were sacrificed and blood samples were obtained for the analyses of blood glucose levels.

For assay [3], the system named is female mice fed a high fat diet for 20 weeks. The experiment in a line: GBR 12909 plus fusaric acid in mice fed a high fat diet. The procedure: Female mice at 4 weeks of age were fed a high fat diet for 20 weeks to induce diabetes and insulin resistance and continued on such diet while treated for 14 days with either GBR 12909 (10 mg/kg), FA (15 mg/kg), GBR 12909 (10 mg/kg) plus FA (15 mg/kg), or vehicle and sacrificed after 14 days of treatment for the analyses of body fat, blood glucose, plasma insulin, and plasma nitric oxide levels. […] Only the GBR/FA group normalized plasma insulin levels. […] This effect was not observed with either GBR or FA treatments alone.

The subject of assay [4] is male mice fed a high fat diet. The experiment in a line: GBR versus bupropion in mice fed a high fat diet. As to the method: The effect of increasing central dopamine neuronal activity versus increasing central dopamine plus norepinephirne neuronal activity on body fat, blood glucose, plasma insulin, and insulin sensitivity was studied in male mice fed a high fat diet from 4 weeks of age until 24 weeks of age. These mice were maintained on this high fat diet while treated with either GBR (20 mg/kg) (a selective dopamine reuptake inhibitor) or bupropion (20 mg/kg) (a dopamine and norepinpehrine reuptake inhibitor) at doses that approximate their 50% maximal effective dose for these functions in vivo in rodents.

The test system of assay [5] is high fat fed, hypertensive SHR rats. The experiment in a line: Quinelorane plus fusaric acid in high fat fed, hypertensive SHR rats. The note with it: SHR rats on high fat diet. The procedure:
Male SHR rats were maintained on 14 hour daily photoperiods and fed a high fat diet (60% of energy from fat; 5.24 kcal/gram weight) for 3 weeks and then divided into different groups and treated with either quinelorane (Q; a dopamine D2/D3 mixed receptor agonist) (0.075 mg/kg), fusaric acid (FA; a dopamine beta hydroxylase inhibitor) (12.5 mg/kg), quinelorane (0.075 mg/kg) plus FA (Q/FA) (12.5 mg/kg), or vehicle at 13 hours after light onset for 17 days. The doses of Q and FA were set at less than half maximal to effect central dopamine receptor binding functions and dopamine beta hydroxylase activity, respectively. […] Blood pressure measurements were taken at 14 days of treatment and animals were sacrificed at 18 days of treatment for analyses of body fat and humoral factors and metabolites. […] Respecting blood glucose, although both Q and FA reduced glucose level relative to vehicle, only the Q/FA regimen normalized blood glucose in these animals relative to vehicle (FIG. 6).

Assay [6] has as its system obese, diabetic female ob/ob mice. The assay can be described thus: Fusaric acid plus SKF 38393 in ob/ob mice. The note with it: fusaric acid 15 mg/kg, SKF 38393 10 mg/kg. The procedure:
Fusaric acid is a dopamine beta hydroxylase inhibitor that reduces noradrenaline synthesis in noradrenergic neurons. It is not present in dopaminergic neurons and thus exerts no such effect there. SKF38393 is a post-synaptic dopamine D1 receptor agonist with no marked influence on noradrenergic neurons. A study was conducted to determine the interactive effects of fusaric acid plus SKF 38393 on body fat store levels, and blood glucose and plasma triglyceride levels in ob/ob mice. The ob/ob mouse is hyperphagic, obese, insulin resistant, diabeteic and dyslipidemic due to the absence of functional leptin as a result of a mutation in this gene.
Obese, diabetic female ob/ob mice (body weight of approximately 33 g) maintained on 14 hour daily photoperiods, housed one per cage and allowed to feed ad libitum were randomized to once daily treatment with either fusaric acid (15 mg/kg; n=6-8), SKF 38393 (10 mg/kg; n=6-8), both fusaric acid (15 mg/kg) and SKF 38393 (10 mg/kg) (n=6-8), or vehicle (control group; n=6-8) for a 14 day period. On the fifteenth day of the study and approximately 24 hours after the final treatment animals were sacrificed and blood samples were obtained for the analyses of blood glucose, plasma free fatty acid and triglyceride levels. Relative to controls, fusaric acid raised blood glucose from 380±30 mg/dl to 430±30 mg/dl and SKF 38393 reduced blood glucose to 290±55 mg/dl. However, fusaric acid plus SKF 38393 reduced blood glucose to 180±20 mg/dl. […] Neither fusaric acid nor SKF 38393 had any effect on retroperitoneal fat pad weight (735±43 mg and 735±50 mg, respectively versus control value of 727±25 mg) however, the combination of fusaric acid plus SKF 38393 reduced retroperitoneal fat pad weight to 680±25 mg.

The test system is the same in assay [7]. The assay can be described thus: Low dose amphetamine with or without bromocriptine in ob/ob mice. As to conditions: amphetamine 3 mg/kg. The source says: Amphetamine is a selective presynaptic dopamine release enhancer. It also acts as a presynaptic noradrenergic release enhancer but at higher dosages that will counter the effect of the dopamine reuptake inhibition activity to improve metabolism. However, addition of a dopamine D2 receptor agonist will act to reduce any amphetamine-induced increase in synaptic noradrenaline level and therefore should produce a more pronounced desired effect on metabolic disease than amphetamine or the D2 receptor agonist alone. A study was conducted to determine the effects of low dose amphetamine (3 mg/kg) with or without the dopamine D2 receptor agonist bromocriptine (5-<10 mg/kg dose) upon body weight gain, blood glucose, plasma free fatty acid and triglyceride levels in obese, diabetic mice (ob/ob strain). […] The ob/ob mouse is hyperphagic, obese, insulin resistant, diabetic and dyslipidemic due to the absence of functional leptin as a result of a mutation in this gene. Starvation or calorie restriction of these mice leads to increases in plasma free fatty acid levels that can function over the long term to worsen diabetes.
On the fifteenth day of the study and approximately 24 hours after the final treatment animals were sacrificed and blood samples were obtained for the analyses of blood glucose, plasma free fatty acid and triglyceride levels. […] Amphetamine had no effect on final body weight however, amphetamine plus bromocriptine reduced final body weight from 44±1 g to 39=/- 1.5 g.

Assay [8] has as its system female C57 Black mice fed a high simple sugar/moderate fat diet (western diet). The experiment in a line: Body fat in C57 Black mice fed a western diet (GBR, FA, clonidine and combinations). As to conditions: mice on western diet; GBR 25 mg/kg, FA 10 mg/kg, clonidine 0.075 mg/kg; 14 days; relative to vehicle and BC/SKF groups; FIG. 7. As to the method:
Female C57 Black mice were maintained on a 12 hour daily photoperiod and fed a high simple sugar/moderate fat diet (western diet) for several weeks to induce obesity and then different groups of animals (n =5-8/group) were treated with either GBR 12909 (25 mg/kg), FA (10 mg/kg), clonidine (0.075 mg/kg), GBR (25 mg/kg) plus FA (10 mg/kg), GBR (25 mg/kg) plus clonidine (0.075 mg/kg), bromocriptine (10 mg/kg) plus SKF38393 (10 mg/kg), or vehicle and sacrificed after 14 days of treatment to analyze body fat store levels.

Setting [9] is: relative to vehicle, 18 days of treatment.

With `Cl.Cl.Fc1ccc(C(OCCN2CCN(CCCc3ccccc3)CC2)c2ccc(F)cc2)cc1` [GBR 12909, 1-(2-[bis(4-Fluorophenyl)methoxy]ethyl)-4-(3-phenylpropyl)piperazine dihydrochloride], the “reduction of plasma triglyceride level relative to controls” value in assay [1] is reported as “approximately 32%”. Also, the blood glucose in assay [1] (about 24 hours after final treatment, controls 455±50) is 145 ± 25 mg/dL; in assay [2], 221 ± 31 mg/dL; in assay [4] (GBR 20 mg/kg, relative to vehicle and Bupropion (20 mg/kg) groups, FIG. 18), “significantly reduced”. For the same compound, in assay [1] (controls 42±2), the final body weight turned out to be 28 ± 0.5 g. Besides, the “plasma free fatty acid levels” value in assay [1] (controls 780±40) is 450 ± 20 µM. For the same compound, the “body weight (normalization)” value in assay [3] (2 weeks of treatment, normal weight for age matched controls=28 grams, FIG. 15) is on record as “not observed”. In assay [3] (GBR 12909 10 mg/kg, FA 15 mg/kg, 14 days, FIG. 11), the blood glucose level result is given as “no significant effect”. For the same compound, the “plasma insulin levels compared to lean, insulin sensitive, non-diabetic mice” value in assay [3] (GBR 12909 10 mg/kg, FA 15 mg/kg, 14 days, FIG. 12) is “significantly higher”. The “reducing plasma insulin, compared with bupropion at equal dose” value in assay [4] (20 mg/kg each) was “much more effective”. In addition, in assay [4] (GBR 20 mg/kg, compared to vehicle and Bupropion (20 mg/kg) groups, FIG. 19), the HOMA-IR values result is recorded as “significantly reduced”. Besides, the “body fat (intraabdominal fat pad)” value in assay [4] (GBR 20 mg/kg, compared to vehicle and Bupropion (20 mg/kg) treatment, FIG. 17) is “significantly reduced”.
With `CCCN1CCC[C@@H]2Cc3nc(N)ncc3C[C@H]21` [Q], in assay [5] (Q 0.075 mg/kg, FA 12.5 mg/kg, 17 days, at 13 hours after light onset, FIGS. 1 and 2), the “change from baseline body weight (weight loss)” value is on record as “modest if any effects”. Besides, the “desensitization to the effects on weight loss” value in assay [5] (Q 0.075 mg/kg, weight regained to baseline values by treatment end) is “exhibited desensitization”. Moreover, in assay [5] (setting [9]), the “plasma endothelin-1 (endothelin 1-21 fragment) level” value is on record as “no significant effect” and the “plasma nitric oxide level” value is on record as “no significant effect”. Also, in assay [5] (relative to vehicle, FIG. 6), the blood glucose level entry is “reduced”.
Turning to `Cl.Oc1cc2c(cc1O)C(c1ccccc1)CNCC2` (centres unmarked) [SKF 38393, 1-phenyl-7,8-dihydroxy-2,3,4,5-tetrahydro-1H-3-benzazepine hydrochloride], in assay [6] (14 days, control value 727±25), the “retroperitoneal fat pad weight” value was determined as 735 ± 50 mg. Moreover, the plasma triglyceride level in assay [6] (14 days, controls 155±15) is 130 ± 7 mg/dL. In addition, the blood glucose in assay [6] (alone or both, once daily 14 days, controls 380±30) was found to be 290 ± 55 mg/dL.
`CC(N)Cc1ccccc1` (centres unmarked) [amphetamine]: the “effect on final body weight” value in assay [7] (14 days) is recorded as “no effect”. Also, in assay [7] (14 days, controls 900±100), the “plasma free fatty acid levels” value was 510 ± 30 µM. In addition, the plasma triglyceride levels in assay [7] (bromocriptine 5-<10 mg/kg, 14 days, controls 175±21) amounted to 70 ± 7 mg/dL. The same compound had a blood glucose in assay [7] (bromocriptine 5-<10 mg/kg, once daily 14 days, controls 422±46) of 348 ± 22 mg/dL.
As for `Clc1cccc(Cl)c1NC1=NCCN1` [clonidine, 2-(2,6-dichloroanilino)-2-imidazoline], in assay [2], the blood glucose was 250 ± 35 mg/dL. Besides, in assay [8], the “body fat store level (intraabdominal fat pad)” value is “no effect”.

Source of the values: patent publication US20140051685A1, “THERAPEUTIC TREATMENT FOR METABOLIC SYNDROME, TYPE 2 DIABETES, OBESITY OR PREDIABETES” (priority 2010, published 2014).
